From patent US8017316B2, “Methods and compositions for the identification of insect repellent compounds” (Duke University, priority 2007, dated 2011)

How the values were obtained:
Or83b mutants = assay: Avoidance Evaluation Chamber assay, Or83b mutant flies; assay type: in vivo, Drosophila melanogaster; details: olfaction-deficient Or83b mutants
Method: (§1) Drosophila Stocks. All fly stocks were maintained on conventional cornmeal-agar-molasses medium under a 12 hour light/12 hour dark cycle at 22° C. Fly strains used were the wild-type Canton-S, the painless mutant pain1 (EP(2)2451), the dTRPA1 mutant (dTRPA1^23-5939/Df(3L)ED4415), the painless− dTRPA1 double mutant pain1; dTRPA1^23-5939, the Or83b mutant W;ΔOr83b (provided by Dr. Hubert Amrein, Duke University, Durham, N.C., United States of America), and the Or83b-painless double mutant pain1; W;ΔOr83b.
(§2) Avoidance Evaluation Chambers: 3% agar (Fisher Scientific, Pittsburgh, Pa., United States of America) and 3% sucrose (Fisher Scientific) was dissolved in distilled H2O. […]
(§3) Data Analysis—Avoidance Behavior: Video was downloaded from the digital video camera to a computer using Image Video Mixer (Sony Electronics Inc.) and saved as an MPEG2 file. […] Image stacks for each trial were then analyzed at 10 or 15-minute intervals. […] Care was taken to make sure only flies were visible in each slice since fluorescence in the light box may be of different brightness in each image. […] To quantify this amount of time each space was occupied, the “mean gray value” for each side was calculated using the Analyze Measurements menu of ImageJ. […]

dTRPA1 mutant flies = assay: Avoidance Evaluation Chamber assay, dTRPA1 mutant flies; assay type: in vivo, Drosophila melanogaster
Method: as §1, §2, §3

Drosophila flies = assay: Evaluation of activity level (speed of flies); assay type: in vivo, Drosophila melanogaster
Method: Evaluation of Activity Level—Speed of Flies: Video of trials were downloaded and converted to image stacks and thresholded as described above. The ImageJ plug-in “Multitracker” was used to analyze the paths taken by each fly. The total distance traveled by all flies on each plate was calculated using the Multitracker plug-in, and this distance was divided by the time interval (in minutes) to gauge the average speed of flies on each plate in path lengths/minute.

painless mutant flies = assay: Avoidance Evaluation Chamber assay, painless mutant flies; assay type: in vivo, Drosophila melanogaster
Method: as §1
(§4) Avoidance Evaluation Chambers: 3% agar (Fisher Scientific, Pittsburgh, Pa., United States of America) and 3% sucrose (Fisher Scientific) was dissolved in distilled H2O. 0.2% (1:500, or 20 mM) N,N-diethyl-3-methylbenzamide (DEET) or 0.01% (1:10000, or 1 mM) allyl-isothiocyanate (AITC) was added and mixed into the agar/sucrose solution immediately before 22 milliliters of solution was poured into each 60 diameter×15 mm HBD Falcon Standard Tissue Culture Dish. The agar was allowed for harden for approximately 1 hour. Using a template below each dish, the agar was then split along the midline with a clean razor blade and half of each plate was excised and placed onto a clean absorbent towel. In order to assess preference, the empty half of each plate was then replaced with solidified 3% agar and 3% sucrose without the addition of DEET or AITC. Care was taken to not contaminate surfaces of toxin and toxin-free agar during this switch.
(§5) Olfactory Desensitization: To prevent most odorant detection, the third antennal segment of each antennae was removed from flies under CO2 anesthesia 24 hours before avoidance trials. Removal of both aristae, but not any part of the antennae, was used as a sham to control for non-specific effects that may have resulted from the surgical procedure.
(§6) Trial Recording: Testing areas (e.g., plates), each containing toxin-containing and toxin-free halves, were placed on a fluorescent-bulb containing light box and arranged so that all fit within the viewfinder of a digital video camera (SONY Handycam; see FIG. 1). Multiple flies to be used on each plate of the trial were sorted under CO2 anesthesia 24 hours before the experiment into glass vials containing fly food. During the experiment, the flies were transferred onto the agar plates by gentle tapping after vials were cooled horizontally on ice. The lids were replaced on the agar plates after fly transfer and animals were allowed a 5-minute acclimation time prior to the start of each trial. The video camera began recording after this acclimation time and ran for 60 minutes. External noise and odors were avoided throughout the trial.
Data Analysis—Avoidance Behavior: Video was downloaded from the digital video camera to a computer using Image Video Mixer (Sony Electronics Inc.) and saved as an MPEG2 file. The movie was then converted to and saved as an image stack at the rate of 1-3 images/second through Image Video Machine (DanDans Digital Media, Boston, Mass., United States of America). Image stacks for each trial were then analyzed at 10 or 15-minute intervals. Each interval was imported and converted to grayscale into ImageJ (Rasband, ImageJ, U.S. National Institutes of Health, Bethesda, Md., United States of America) as a stack and thresholded (Image→Threshold) so that only flies were visible. Care was taken to make sure only flies were visible in each slice since fluorescence in the light box may be of different brightness in each image. The Z-stack Standard Deviation function of ImageJ (Image→Stack→Z-stack→Standard Deviation) was used to visualize the position of all flies throughout each time interval. This inverts and stacks pixels (flies) from each stack image so that the most occupied areas are standardized to be the brightest, and the least occupied areas remain dark. To quantify this amount of time each space was occupied, the “mean gray value” for each side was calculated using the Analyze Measurements menu of ImageJ. […]

[1] = system: non-transfected S2R+ cells; assay: Calcium imaging of non-transfected S2R+ cells; assay type: cell-based, Drosophila; details: 0.5% DEET, seven regions of interest
Method: Calcium Imaging for S2R+ cells: the following protocol was followed:
100 μl of the following Fluo4+Fura-Red solution was added per well:
Added 200 μl of fly saline.
The ligand solution was added (with or without Ca++ fly saline).
Control cells were S2R+ cells mock-transfected (no DNA was introduced in the co-precipitation buffers).
After removal of the cell medium from the transfected cells of EXAMPLE 8, 100 μl of FLUO-4+ FURA-Red solution was added to well. This solution included 0.5 μl FLUO-4 stock, 0.5 μl FURA-Red stock, 0.5 μl Pluronic stock and 100 μl Stop solution. The cells were incubate in this solution at room temperature for 45 minutes. The saline was removed and 200 μl of fly saline was added. In Ca++ free conditions, the cells were washed with Ca++ free fly saline supplemented with 5 mM EGTA three times, and then 200 μl of Ca++ free, 5 mM EGTA fly saline was added. The ligand solution was then added with or without Ca++ fly saline.
The loaded cells were imaged by confocal microscopy using 488 nm excitation and Long Pass 650 nm and Band Pass 500-525 nm filters.

wild-type Canton S flies = assay: Avoidance Evaluation Chamber assay, wild type flies; assay type: in vivo, Drosophila melanogaster; details: for avoidance without the third antennal segment: wild type Canton S flies, third antennal segment removed
Method: as §4, §5, §6
Data Analysis—Avoidance Behavior: Video was downloaded from the digital video camera to a computer using Image Video Mixer (Sony Electronics Inc.) and saved as an MPEG2 file. The movie was then converted to and saved as an image stack at the rate of 1-3 images/second through Image Video Machine (DanDans Digital Media, Boston, Mass., United States of America). Image stacks for each trial were then analyzed at 10 or 15-minute intervals. Each interval was imported and converted to grayscale into ImageJ (Rasband, ImageJ, U.S. National Institutes of Health, Bethesda, Md., United States of America) as a stack and thresholded (Image→Threshold) so that only flies were visible. Care was taken to make sure only flies were visible in each slice since fluorescence in the light box may be of different brightness in each image. The Z-stack Standard Deviation function of ImageJ (Image→Stack→Z-stack→Standard Deviation) was used to visualize the position of all flies throughout each time interval. […] To quantify this amount of time each space was occupied, the “mean gray value” for each side was calculated using the Analyze Measurements menu of ImageJ. […]
Alternatively, the threshold intensity of a single frame in NIH ImageJ was determined automatically; this function highlighted only the flies against an otherwise white background. […]

Drosophila painless = target: T1, Drosophila painless (Drosophila melanogaster, UniProt Q9W0Y6); assay: Calcium imaging of S2R+ cells transfected with painless; assay type: cell-based; details: 0.5% DEET, six regions of interest
T1 construct: expressed in transfected cells; host or cells: Drosophila S2R+ cells
T1 sequence (Q9W0Y6 1-913): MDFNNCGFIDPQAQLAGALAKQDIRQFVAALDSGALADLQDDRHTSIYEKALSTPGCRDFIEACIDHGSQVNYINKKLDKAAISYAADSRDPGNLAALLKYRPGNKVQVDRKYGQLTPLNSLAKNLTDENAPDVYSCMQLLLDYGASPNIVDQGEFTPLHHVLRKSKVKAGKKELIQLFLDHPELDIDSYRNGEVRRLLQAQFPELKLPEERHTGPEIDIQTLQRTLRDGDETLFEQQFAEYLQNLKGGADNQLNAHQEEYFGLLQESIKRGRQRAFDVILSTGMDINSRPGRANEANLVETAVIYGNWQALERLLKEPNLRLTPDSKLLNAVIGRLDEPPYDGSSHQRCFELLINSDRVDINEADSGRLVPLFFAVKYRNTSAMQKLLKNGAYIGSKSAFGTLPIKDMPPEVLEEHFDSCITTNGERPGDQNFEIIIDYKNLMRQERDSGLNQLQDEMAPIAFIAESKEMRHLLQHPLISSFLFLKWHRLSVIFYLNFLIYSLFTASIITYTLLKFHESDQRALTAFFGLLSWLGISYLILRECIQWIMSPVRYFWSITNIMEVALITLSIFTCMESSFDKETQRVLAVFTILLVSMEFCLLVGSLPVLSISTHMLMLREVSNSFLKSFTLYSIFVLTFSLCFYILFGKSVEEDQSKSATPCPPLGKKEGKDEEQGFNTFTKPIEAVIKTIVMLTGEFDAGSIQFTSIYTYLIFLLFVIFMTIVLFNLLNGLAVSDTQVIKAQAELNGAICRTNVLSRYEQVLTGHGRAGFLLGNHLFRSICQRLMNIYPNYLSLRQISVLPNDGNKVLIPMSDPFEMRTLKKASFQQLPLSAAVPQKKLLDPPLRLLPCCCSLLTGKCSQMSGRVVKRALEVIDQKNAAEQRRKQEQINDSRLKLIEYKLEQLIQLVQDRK
Method: Calcium Phosphate Transfection of Drosophila S2R+ Cells: Drosophila S2R+ cells were maintained at room temperature, in ambient atmosphere, in Schneider's Drosophila medium modified with L-glutamine plus 10% heat-inactivated fetal bovine serum. On the day before DNA transfection, cells were plated at a density of 1.2×10^5 cells per cm^2 growth area. DNA to be transfected was added to 250 mM CaCl2 (a volume equal to 1/20th of the volume of the medium in the dish of cells to be transfected) then this mixture was added dropwise to the same volume of 280 mM NaCl/1.5 mM/Na2HPO4/50 mM HEPES, pH 7.08 (2×HEPES buffered saline) while bubbling air gently through the liquid to mix. Precipitate was allowed to form at room temperature for 40 minutes. Immediately before introducing the precipitate, all growth medium was removed form the cells and fresh growth medium was added. Precipitate was added dropwise to the cells, and the dish was gently swirled. 18-24 hour later all liquid on the dish was withdrawn and was replaced with fresh growth medium. Expression was examined on the third day.
For the DEET experiments, 2 ml of culture medium containing 5.75×10^5 cells/ml was placed onto #1.5 25 mm diameter round glass cover slips placed in 6-well multiwell dishes. […]

CCN(CC)C(=O)c1cccc(C)c1 [DEET, N,N-diethyl-meta-toluamide]
avoidance (Or83b mutants): able to avoid DEET
exposure time until consistent avoidance of DEET (dTRPA1 mutant flies; 0.2% concentration): less than 15 minutes
activity level (path lengths/min) in the presence of DEET (Drosophila flies; Canton S flies without the third antennal segment): significantly less active
activity level in the presence of DEET (Drosophila flies; Or83b flies compared to Canton S, TrpA1 and painless mutant counterparts): much less active
activity level (path lengths/min) in the presence of DEET (Drosophila flies; wild type Canton S flies with intact third-antennal segments): increased their activity level
avoidance of DEET in first 15 minutes (painless mutant flies; P-pain-rescue, pain1 transgenic flies (genomic painless rescue construct), females and males): some avoidance of DEET
avoidance of DEET in first fifteen minutes after exposure (painless mutant flies; pain1/pain2 females and males): failed to avoid DEET
avoidance of DEET in first fifteen minutes after exposure (painless mutant flies; pain1 females and males): failed to avoid DEET
time to avoid DEET, females relative to males (painless mutant flies; painless females vs painless males): twice as long
avoidance of DEET, females (painless mutant flies; painless-/- females): barely avoiding at the last 65 min time point
time to begin avoiding DEET (painless mutant flies; painless-/- males): about 30 minutes
avoidance of DEET without third antennal segments (painless mutant flies; painless-/- males and females with surgically removed third antennal segments): no avoidance of DEET
avoidance of DEET in first fifteen minutes of the trial (painless mutant flies; painless-Gal4 females and males): failed to avoid DEET
calcium response (FLUO-4 and FURA-RED AM channels) [1]: strong calcium increases
time to begin avoiding DEET (wild-type Canton S flies; Canton S flies without antennae): almost immediately
avoidance without the third antennal segment (wild-type Canton S flies): able to avoid
avoidance of DEET in first fifteen minutes after exposure (wild-type Canton S flies; wild type Canton-S flies): clearly avoided DEET
lowest concentration in agar consistently avoided (wild-type Canton S flies; wild-type Canton S flies, with and without the presence of sugar): 0.2%
calcium response (FLUO-4 and FURA-RED AM channels) (Drosophila painless): strong calcium increases

C=CCN=C=S [AITC, allyl-isothiocyanate]
avoidance (Or83b mutants): did not show the same avoidance of AITC
avoidance of AITC over time (dTRPA1 mutant flies; 1:10,000 AITC): avoided the toxin for the first 30 minutes, but afterwards showed no preference for either side of the plate
preference in AITC avoidance test, males (painless mutant flies; painless-/- males, 1:10,000 dilution): slight preference for the non-AITC side
AITC detection / avoidance (painless mutant flies; painless-/- mutants, 1:10,000 dilution, compared to wild type Canton S): deficient in AITC detection
avoidance without the third antennal segment (wild-type Canton S flies): able to avoid
